Biological target: T1, E. coli DNA gyrase B (Escherichia coli, UniProt P0AES6)
T1 construct: gene gyrB
Assay: in vitro E. coli DNA gyrase enzyme inhibition assay (manufacturer's protocol)
Type: biochemical

N#Cc1c(-c2cn(-c3ccccc3)nc2-c2cc3ccccc3o2)c(C#N)c(=O)n2c1NCCN2 [compound 9, 8-(3-(Benzofuran-2-yl)-1-phenyl-1H-pyrazol-4-yl)-6-oxo-1,3,4,6-tetrahydro-2H-pyrido[1,2-b][1,2,4]triazine-7,9-dicarbonitrile]
IC50: 9.8 ± 0.21 µM

CC(=O)n1c(C)nc2c(C#N)c(-c3cn(-c4ccccc4)nc3-c3cc4ccccc4o3)c(C#N)c(=O)n21 [compound 10, 3-Acetyl-7-(3-(benzofuran-2-yl)-1-phenyl-1H-pyrazol-4-yl)-3,5-dihydro-2-methyl-5-oxo-[1,2,4]triazolo[1,5-a]pyridine-6,8-dicarbonitrile]
IC50: 32.2 ± 0.1 µM

From paper PMC11676098, “New Benzofuran–Pyrazole-Based Compounds as Promising Antimicrobial Agents: Design, Synthesis, DNA Gyrase B Inhibition, and In Silico Studies” (Pharmaceuticals, 2024)
